From US12414932B2, “Arsinothricin and methods of treating infections using arsinothricin” (priority 2018, dated 2025)
Read-outs that look alike come from different tables or passages of the source.

Key:
PpArsN1 = PpArsN1 (Pseudomonas putida, UniProt Q88LK7); conditions: for PpArsN1 Specific activity: Substrate 50 μM, 37° C.
E. coli AW3110 = experiment: microbe, parasite or virus in culture; type: cell-based, Escherichia coli; conditions: for IC50: read-out: concentration giving 50% inhibition
P. putida Aars1,2 = experiment: microbe, parasite or virus in culture; type: cell-based, Pseudomonas putida; conditions: for IC50: read-out: concentration giving 50% inhibition
Mycobacterium bovis BCG = type: cell-based
[1] = biological target: phosphinothricin N-acetyltransferase (SvPAT) (Streptomyces viridochromogenes, UniProt Q57146); experiment: N-acetyltransferase assay (DTNB) with SvPAT; type: biochemical, Streptomyces viridochromeogenes; conditions: as substrate of PAT (SvPAT)
Chain of phosphinothricin N-acetyltransferase (SvPAT) (Q57146 whole entry, looked up): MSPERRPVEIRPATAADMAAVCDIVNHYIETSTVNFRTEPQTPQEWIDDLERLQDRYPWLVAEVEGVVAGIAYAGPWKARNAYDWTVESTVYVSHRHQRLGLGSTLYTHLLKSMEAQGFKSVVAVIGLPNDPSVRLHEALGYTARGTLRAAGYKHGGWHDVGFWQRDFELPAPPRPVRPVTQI

[2] = biological target: glutamine synthetase (GS) from E. coli (Escherichia coli, UniProt P0A9C5); experiment: biochemical
Chain of glutamine synthetase (GS) from E. coli (P0A9C5 2-469): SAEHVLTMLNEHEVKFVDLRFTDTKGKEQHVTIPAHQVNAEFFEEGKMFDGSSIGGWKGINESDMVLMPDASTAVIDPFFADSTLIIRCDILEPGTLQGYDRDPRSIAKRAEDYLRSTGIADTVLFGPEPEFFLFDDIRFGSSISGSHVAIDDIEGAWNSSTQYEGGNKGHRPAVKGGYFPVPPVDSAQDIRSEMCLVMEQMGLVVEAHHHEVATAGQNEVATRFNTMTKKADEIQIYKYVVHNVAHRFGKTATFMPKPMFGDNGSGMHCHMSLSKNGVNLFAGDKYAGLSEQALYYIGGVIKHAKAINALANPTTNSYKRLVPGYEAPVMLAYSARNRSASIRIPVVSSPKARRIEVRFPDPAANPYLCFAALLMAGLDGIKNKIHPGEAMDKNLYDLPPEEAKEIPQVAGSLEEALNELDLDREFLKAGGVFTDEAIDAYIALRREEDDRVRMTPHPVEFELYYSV

Chain of PpArsN1 (Q88LK7 1-186): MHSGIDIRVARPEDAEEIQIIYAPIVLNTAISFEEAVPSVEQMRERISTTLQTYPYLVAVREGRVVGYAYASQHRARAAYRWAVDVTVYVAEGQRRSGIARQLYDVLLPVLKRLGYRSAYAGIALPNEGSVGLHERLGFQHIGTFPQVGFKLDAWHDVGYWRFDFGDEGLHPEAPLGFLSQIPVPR

Compound | substrate quality for PpArsN1 (PpArsN1) | PpArsN1 Specific activity (PpArsN1) [nmol/s/mg] | concentration giving nearly complete inhibition (E. coli AW3110) [µM] | effectiveness as an antibiotic compared with PT (E. coli AW3110) | toxicity (growth inhibition) compared with As(III) and MAs(III) (E. coli AW3110) | IC50 (E. coli AW3110) [nM] | concentration giving nearly complete inhibition (P. putida Aars1,2) [µM] | effectiveness as an antibiotic compared with PT (P. putida Aars1,2) | IC50 (P. putida Aars1,2) [nM] | inhibitory effect on mycobacterial growth (Mycobacterium bovis BCG) | Kcat [1] [s⁻¹] | Km [1] [µM] | cytotoxicity in human monocytes (THP-1 cells) | affinity of PpArsN1 compared with PT (PpArsN1) [fold] | Kcat (PpArsN1; as substrate of PpArsN1) [s⁻¹] | Km (PpArsN1; as substrate of PpArsN1) [µM] | IC50 (E. coli AW3110; Escherichia coli, AW3110, 24 h) [nM] | IC50 (P. putida Aars1,2; Pseudomonas putida, 24 h) [nM] | Ki [2] [nM]
methionine sulfoximine [MSO, reference compound] | poor substrate | 2.1 ± 0.1 | – | – | – | – | – | – | – | – | – | – | – | – | – | – | – | – | –
C[As](=O)(O)CC[C@H](N)C(=O)O [AST, 2-amino-4-(hydroxymethylarsinoyl) butanoate] | – | 49.6 ± 0.8 | 20 | approximately 30 fold | considerably more inhibitory than inorganic As (III) and is similar to that of highly toxic trivalent methylarsenite (MAs(III)) | ~3000 | 20 | approximately 30 fold | ~3000 | comparable with MSO and much higher than PT | 2.3 ± 0.1 | 12 ± 2 | benign and much less toxic compared to inorganic arsenite | 100 | 1.7 ± 0.2 | 11 ± 3 | – | – | –
CP(=O)(O)CCC(N)C(=O)O (racemic) [PT, phosphinothricin, reference compound] | – | 13.9 ± 1.9 | – | – | – | – | – | – | – | – | 3.1 ± 0.0 | – | – | – | – | – | 100000 | 100000 | 400 ± 150
